Results published in patent publication US4644006A, “Substituted 3,4-diamino-1,2,5-thiadiazoles having histamine H2 -receptor antagonist activity” (Bristol-Myers Company, priority 1984, dated 1987).
Like-named read-outs stand apart in the source and are kept apart here.

Legend:
[1] = tested on: gastric acid secretion (Heidenhain pouch dog); assay: Gastric antisecretory activity in the histamine-stimulated Heidenhain pouch dog; format: in vivo; details: for ED50: Canis lupus familiaris, 0.5 h, read-out: ED50 i.v.
Protocol: Prior to surgery, hematology and blood chemistry profiles are obtained and an assessment made as to the general health of selected female dogs. Dogs are vaccinated with Tissue Vax 5 (DHLP-Pitman-Moore) and housed in general animal quarters for four weeks' observation so incipient diseases may become apparent. Dogs are fasted with water ad libitum 24 hours prior to surgery.
Anesthesia is induced with Sodium Pentothal (Abbott) 25-30 mg/kg iv. Subsequent anesthesia is maintained with methoxyflurane (Pitman-Moore). A mid-line linea alba incision from xiphoid to umbilicus provides good exposure and ease of closure. The stomach is pulled up into the operative field, the greater curvature stretched out at multiple points and clamps placed along the selected line of incision. The pouch is made from the corpus of the stomach so that true parietal cell juice is obtained. About 30% of the corpus volume is resected. The cannula is made of light-weight,biologically-inert material such as nylon, Delrin or surgical stainless steel with dimensions and attachments after DeVito and Harkins [J. Appl. Physiol., 14, 138 (1959)]. Post-operatively, dogs are medicated with antibiotics and an analgesic. They are allowed 2-3 months for recovery. Experiments are carried out in the following way: Dogs are fasted overnight (18 hours) with water ad libitum prior to each experiment. The dogs are placed in a sling and a saphenous vein cannulated for drug administration. Histamine as the base (100 μg/kg/hr) and chlorpheniramine maleate (0.25 mg/kg/hr) are infused continuously (in a volume of 6 ml/hr) with a Harvard infusion pump.
Ninety minutes' infusion are allowed for the dogs to reach a steady state of acid output. At this time the drug or normal saline (control) is administered concomitantly with the secretagogue in a volume of 0.5 ml/kg over a 30 second period. Infusion of the secretagogue is continued and 15 minute samples of the gastic juice are taken for 4.5 hours. Each sample is measured to the nearest 0.5 ml and tritratable acidity is determined by titrating a 1 ml sample to pH 7.0 with a 0.2N NaOH, employing a fully automatic titration system (Metrohm). Titratable acid output is calculated in microequivalents by multiplying the volume is milliliters by the acid concentration in microequivalents per milliliter.
Results at peak activity after bolus intravenous administration of test compound are expressed as percent inhibition relative to control readings. Dose-response curves were constructed utilizing at least three dose levels with a minimum of three dogs at each dose level. […]

[2] = biological target: T1, histamine H2-receptors (isolated guinea pig right atria) (Cavia porcellus, UniProt P47747); assay: Histamine H2-receptor antagonism, isolated guinea pig right atria assay; set-up: estimated dissociation constant KB: unit not given here; details: for effect on histamine or dimaprit dose-response curves: at the concentrations utilized, 30-minute incubation
T1 construct: The spontaneously beating right atrium was dissected free from other tissues; from tissue; host or cells: isolated spontaneously beating right atrium of male Hartley guinea pigs
T1 sequence (P47747 whole entry): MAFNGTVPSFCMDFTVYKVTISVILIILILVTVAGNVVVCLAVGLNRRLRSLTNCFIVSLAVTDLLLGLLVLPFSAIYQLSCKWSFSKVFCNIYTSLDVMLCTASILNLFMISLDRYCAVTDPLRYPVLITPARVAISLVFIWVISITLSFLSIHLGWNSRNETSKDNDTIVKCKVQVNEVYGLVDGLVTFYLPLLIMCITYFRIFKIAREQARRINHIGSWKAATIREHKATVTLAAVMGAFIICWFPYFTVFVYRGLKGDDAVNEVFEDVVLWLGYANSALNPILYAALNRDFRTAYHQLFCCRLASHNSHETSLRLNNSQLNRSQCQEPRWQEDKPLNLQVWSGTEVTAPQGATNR
Protocol: Subsequent investigations by Hughes and Coret, Proc. Soc. […] Black et al., Agents and Actions, 3, 133 (1973) and Brimblecombe et al., Fed. […] The present comparative studies were carried out using a modification of the procedure reported by Reinhardt et al., Agents and Actions, 4, 217 (1974).
The spontaneously beating right atrium was dissected free from other tissues and a silk thread (4-0) attached to each end.

[3] = tested on: peptic ulcer disease; details: Gray et al., Lancet, 1, 8001 (1977); cited from earlier work
[4] = tested on: histamine H2-receptors; details: Black et al., Nature, 236, 385 (1972); cited from earlier work

Row | SMILES | ED50 ([1]; intravenous dose giving 50% inhibition at time of peak activity, i.e. 30 minutes post dose, parentheses: 95% confidence limits, histamine 100 μg/kg/hr) [µmol/kg] | Potency Ratio (cimetidine = 1.0) ([1]; i.v., Heidenhain pouch dog, cimetidine = 1.0, Probit analysis) | duration of action of antisecretory activity ([1]; intravenous dog model, relative to cimetidine) | effect on histamine or dimaprit dose-response curves [2] | estimated dissociation constant KB ([2]; estimated by method of Furchgott, KB = concentration of antagonist/dose ratio-1, ± S.E., N = 5 preparations) | Potency Ratio (cimetidine = 1.0) ([2]; from KB, isolated guinea pig right atria, cimetidine = 1.0) | ED50 ([1]; iv) [µmol/kg] | clinical effectiveness in peptic ulcer disease [3] | type of antagonism at histamine H2-receptors [4]
1 | N=C(N)Nc1nc(CSCCNc2nsnc2N)cs1 [Example 1, 3-Amino-4-{2-[(2-guanidinothiazol-4-yl)methylthio]ethylamino}-1,2,5-thiadiazole] | 0.082 | 32 | prolonged duration of action relative to cimetidine | Parallel shifts in dose-response curves were obtained without depressing the maximal response | 0.0094 ± 0.0018 | 44 |  |  | 
2 | CN/C(=N/CCSCc1nc[nH]c1C)NC#N [cimetidine, reference compound] |  |  |  | Parallel shifts in dose-response curves were obtained without depressing the maximal response |  |  | 2.6 | effective therapeutic agent in the treatment of peptic ulcer disease | 
3 | CNC(=S)NCCCCc1cnc[nH]1 [burimamide] |  |  |  |  |  |  |  |  | competitive antogonist
